Converted amounts (≈) assume the structure as drawn.
Experiments:
[1] = test system: C. neoformans (F10025); details: Cryptococcus neoformans, read-out: MIC99 C. neoformans
[2] = test system: Genomic double stranded DNA (salmon); assay: Fluorescence intercalator displacement (FID) assay, SYBR-safe probe; details: 20 μM compound, 30° C., lower % = stronger binding
In short: (§1)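 Probe displacement was measured at 30 °C in 1 mM phosphate pH 7.4 containing SybrSafe (12500-fold dilution), 3.76 ng/mL nucleic acid (salmon dsDNA or polyAU dsRNA) and 20 μM compound. Fluorescence loss is normalised between probe-only and probe-plus-nucleic-acid controls.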

[3] = test system: PolyAU double stranded RNA; assay: as above; details: 20 μM compound, 30° C., lower % = stronger binding
In short: as §1

[4] = test system: Escherichia coli (ATCC 25922); assay: Antibacterial MIC, broth microdilution (CLSI); format: cell-based; details: Escherichia coli, ATCC25922; read-out: MIC80 E. coli
[5] = test system: Candida auris (H.17.157); details: for MIC99: Candidozyma auris, read-out: MIC99 Candida auris; for C. auris Selectivity Indices, Group: Alkyl Amidines and NH Pyrroles
[6] = test system: Staphylococcus aureus (ATCC 43300); assay: Antibacterial MIC, broth microdilution (CLSI); format: cell-based; details: for S. aureus Selectivity Indices, Group / S. aureus Selectivity Index (SI): SI, IC50 (μM)/MIC80 (μM), HEK293 cytotoxicity; for S. aureus Selectivity Index (SI): numeric value; for MIC80: Staphylococcus aureus, ATCC43300, read-out: MIC80 S. aureus
[7] = test system: T. evansi AntTat 3/3; assay: Resazurin-based (Alamar blue) drug sensitivity assay; details: read-out: IC50 T. evansi
Method: A detailed description of the procedure for evaluating activity against trypanosomes, using an Alamar Blue (resazurin) assay, is described below.
The bloodstream form (BSF) T. b. brucei s427 (see De Koning, H. P. et al., Mol. Biochem. Parasitol. 2000, 106, 181-185), T. evansi AntTat 3/3 (see Dean, S. et al., Proc. Natl. Acad. Sci. USA, 2013, 110, 14741-14746), and T. equiperdum (see Stewart, M. L. et al., Eukaryot. Cell, 2010, 9, 336-343) were cultured in HMI-9 medium (Life Technologies, Paisley, United Kingdom) supplemented with 10% heat inactivated Foetal Bovine Serum (FBS (PAA Laboratories Linz, Austria)), 14 μL/L β-mercaptoethanol (BDH, Dorset, UK), and 3.0 g/L NaHCO3 (Sigma-Aldrich) and adjusted to pH 7.4. These cell lines were maintained at 37° C. in a humidified, 5% CO2 environment.
A resazurin-based (Alamar blue) drug sensitivity assay was used to assess and compare the activity of standard trypanocides in the different cell lines investigated (see Gould, M. K. et al., Anal. Biochem., 2008, 382, 87-93). Briefly, 23 doubling dilutions of the test compound of the invention, starting at 100 μM, and a compound-free control were prepared in 100 μL medium in a 96-well white plate (Greiner Bio-one, Frickenhausen, Germany). The cells were adjusted to 2×10^4 cells/mL for T. b. brucei and T. equiperdum; 4×10^4 cells/mL for T. evansi; and 5×10^5 cells/mL for T. congolense in the appropriate medium. 100 μL of the adjusted cells was then added to the wells containing drug dilutions and incubated for 48 h under respective culture condition. Thereafter, 20 μL of 125 mg/mL resazurin sodium dye was added, and the plate was incubated for a further 24 h.

[8] = test system: A. fumigatus A1160 (MFIG001); details: Aspergillus fumigatus, read-out: MIC99 A. fumigatus A1160
[9] = test system: Candida glabrata (ACPF3309); details: for MIC99: Nakaseomyces glabratus, read-out: MIC99 Candida glabrata; for C. glabrata Selectivity Indices, Group / C. glabrata Selectivity Index (SI): SI, IC50 (μM)/MIC99 (μg/mL), HEK293 cytotoxicity; for C. glabrata Selectivity Indices, Group: Alkyl Amidines and NH Pyrroles; for C. glabrata Selectivity Index (SI): numeric value
Method: The Minimum Inhibitory Concentration (MIC, at 99% inhibition) of the compounds was determined using the broth microdilution method as recommended by EUCAST (EUCAST Definitive Document E.DEF 9.3.2, Method for the determination of broth dilution minimum inhibitory concentrations of antifungal agents for conidia forming moulds and EUCAST Definitive Document E.DEF 7.3.2 Method for the determination of broth dilution minimum inhibitory concentrations of antifungal agents for yeasts).

[10] = test system: Enterococcus faecalis (ATCC 51299); assay: Antibacterial MIC, broth microdilution (CLSI); format: cell-based; details: for MIC80: Enterococcus faecalis, ATCC51299, read-out: MIC80 E. faecalis
[11] = test system: T. equiperdum; assay: Resazurin-based (Alamar blue) drug sensitivity assay; details: Trypanosoma equiperdum, read-out: IC50 T. equiperdum
[12] = test system: Rhizopus arrhizus (NEQAS12.35321); details: read-out: MIC99 Rhizopus arrhizus
[13] = test system: SARS-CoV-2 (hCoV-19/Australia/VIC01/2020); assay: SARS-CoV-2 microplaque inhibition assay in Vero-E6 cells; format: cell-based; details: for SARS-CoV-2 Selectivity Indices, Group: Alkyl Amidines and NH Pyrroles; for IC50: Severe acute respiratory syndrome coronavirus 2, Vero C1008, plaque inhibition, Vero-E6 cells, read-out: IC50 SARS-CoV-2
[14] = test system: Influenza (H1N1); assay: Accelerated Viral Neuraminidase Inhibition Assay (AVINA), A549 cells; format: cell-based; details: Influenza A virus, 72 h
[15] = test system: T. vaginalis; assay: Trichomonas resorufin assay; format: cell-based; details: Trichomonas vaginalis, read-out: IC50 T. vaginalis
[16] = SI, IC50 (μM)/MIC99 (μg/mL), HEK293 cytotoxicity
[17] = SI, IC50 (μM)/IC50 (μM), HEK293 cytotoxicity

Structure (SMILES)	MIC99 [1] [µg/mL]	% Normalised Fluorescence with gDNA [2] [%]	% Normalised Fluorescence with polyAU RNA [3] [%]	MIC80 [4] [µM]	MIC99 [5] [µg/mL]	C. auris Selectivity Indices, Group [5, 16]	S. aureus Selectivity Indices, Group ([6]; Alkyl Amidines and NH Pyrroles)	S. aureus Selectivity Index (SI) [6]	MIC80 [6] [µM]	IC50 [7] [nM]	MIC99 [8] [µg/mL]	MIC99 [9] [µg/mL]	C. glabrata Selectivity Indices, Group [9]	MIC80 [10] [µM]	IC50 [11] [nM]	MIC99 [12] [µg/mL]	further results
Cn1cc(NC(=O)c2ccc(/C=C/c3cnc4ccccc4c3)cc2)cc1C(=O)Nc1c[nH]c(C(=O)NCCC(=N)N)c1 [IIIa2, (E)-N-(5-((3-amino-3-iminopropyl)carbamoyl)-1H-pyrrol-3-yl)-1-methyl-4-(4-(2-(quinolin-3-yl)vinyl)benzamido)-1H-pyrrole-2-carboxamide]	< 5	17	21	> 100	5 to 25 (≈ 8.7 to 43.5 µM)	C (Group C 1 < SI <= 3)	D (D: SI > 10)	11	< 5	10 to 100	5 to 25 (≈ 8.7 to 43.5 µM)	< 5	C (Group C 20 < SI <= 50)	> 100	10 to 100	25 to 50 (≈ 43.5 to 87 µM)	C. auris Selectivity Index (SI) ([5]; SI, IC50 (μM)/MIC99 (μg/mL), HEK293 cytotoxicity, numeric value): 3; C. glabrata Selectivity Index (SI) [9]: 47
Cn1cc(NC(=O)c2cc(NC(=O)c3ccc(/C=C/c4cnc5ccccc5c4)cc3)c[nH]2)cc1C(=O)NCCC(=N)N [IIIa4, (E)-N-(3-amino-3-iminopropyl)-1-methyl-4-(4-(4-(2-(quinolin-3-yl)vinyl)benzamido)-1H-pyrrole-2-carboxamido)-1H-pyrrole-2-carboxamide]	< 5	14	3	25 to 100 (≈ 14.4 to 57.5 µg/mL)	25 to 50 (≈ 43.5 to 87 µM)	C (Group C 1 < SI <= 3)	D (D: SI > 10)	81	< 5	10 to 100	5 to 25 (≈ 8.7 to 43.5 µM)	< 5	D (Group D: SI > 50)	< 5	< 10	5 to 25 (≈ 8.7 to 43.5 µM)	C. glabrata Selectivity Index (SI) [9]: 652; E. faecalis Selectivity Indices, Group ([10]; SI, IC50 (μM)/MIC80 (μM), HEK293 cytotoxicity, Alkyl Amidines and NH Pyrroles): D (D: SI > 10); E. faecalis Selectivity Index (SI) ([10]; SI, IC50 (μM)/MIC80 (μM), HEK293 cytotoxicity, numeric value): 41
CN(C)c1ccc(/C=C/c2ccc(C(=O)Nc3cc(C(=O)Nc4c[nH]c(C(=O)NCCC(=N)N)c4)n(C)c3)cn2)cc1 [IIIa7, (E)-N-(5-((5-((3-amino-3-iminopropyl)carbamoyl)-1H-pyrrol-3-yl)carbamoyl)-1-methyl-1H-pyrrol-3-yl)-6-(4-(dimethylamino)styryl)nicotinamide]	< 5	13	20	25 to 100 (≈ 14.2 to 56.8 µg/mL)	5 to 25 (≈ 8.81 to 44 µM)	C (Group C 1 < SI <= 3)	D (D: SI > 10)	14	< 5	> 1000	5 to 25 (≈ 8.81 to 44 µM)	< 5	B (Group B: 12 < SI <= 20)	5 to 25 (≈ 2.84 to 14.2 µg/mL)	> 1000	5 to 25 (≈ 8.81 to 44 µM)	SARS-CoV-2 Selectivity Indices, Group [13, 17]: C (Group C: 10 < SI <= 25); SARS-CoV-2 Selectivity Index (SI) ([13]; SI, IC50 (μM)/IC50 (μM), HEK293 cytotoxicity, numeric value): 24; IC50 [13]: < 2000 nM
N=C(N)CCNC(=O)c1cc(NC(=O)c2cc(NC(=O)c3ccc(/C=C/c4ccc5nonc5c4)cc3)c[nH]2)c[nH]1 [IIIa8, (E)-N-(3-amino-3-iminopropyl)-4-(4-(4-(2-(benzo[c][1,2,5]oxadiazol-5-yl)vinyl)benzamido)-1H-pyrrole-2-carboxamido)-1H-pyrrole-2-carboxamide]	5 to 25 (≈ 9.07 to 45.3 µM)	31	10	> 100	> 50	–	–	–	25 to 100 (≈ 13.8 to 55.2 µg/mL)	10 to 100	> 50	> 50	–	> 100	< 10	> 50	–
Cn1cc(NC(=O)c2cc(NC(=O)c3ccc(/C=C/c4cnc5ccccc5c4)cc3)c[nH]2)cc1C(=O)NCCN1CCOCC1 [IIIb8, (E)-1-methyl-N-(2-morpholinoethyl)-4-(4-(4-(2-(quinolin-3-yl)vinyl)benzamido)-1H-pyrrole-2-carboxamido)-1H-pyrrole-2-carboxamide]	–	37	26	> 100	–	–	–	–	< 5	10 to 100	–	–	–	> 100	< 10	–	inhibition at 20 µM [14]: > 50%
[H]/N=C(\CCNC(=O)c1cc(NC(=O)c2cc(NC(=O)c3ccc(C=Cc4ccc(N(C)C)cc4)nc3)cn2C)cn1C)NCC [Ia1, (E)-6-(4-(dimethylamino)styryl)-N-(5-((5-((3-(ethylamino)-3-iminopropyl)carbamoyl)-1-methyl-1H-pyrrol-3-yl)carbamoyl)-1-methyl-1H-pyrrol-3-yl)nicotinamide]	< 5	13	5	> 100	5 to 25 (≈ 8.2 to 41 µM)	B (Group B: 0.4 < SI <= 1)	B (Group B: 3 < SI <= 5)	–	5 to 25 (≈ 3.05 to 15.2 µg/mL)	10 to 100	5 to 25 (≈ 8.2 to 41 µM)	< 5	–	25 to 100 (≈ 15.2 to 61 µg/mL)	100 to 1000	> 50	SARS-CoV-2 Selectivity Indices, Group [13, 17]: B (Group B: 4.1 < SI <= 10); IC50 [13]: 2000 to 8000 nM
CCCCCCCCCC[N+](C)(C)CCNC(=O)c1cc(NC(=O)c2cc(NC(=O)c3ccc(/C=C/c4cnc5ccccc5c4)cc3)cn2C)cn1C [Ic9, (E)-N,N-dimethyl-N-(2-(1-methyl-4-(1-methyl-4-(4-(2-(quinolin-3-yl)vinyl)benzamido)-1H-pyrrole-2-carboxamido)-1H-pyrrole-2-carboxamido)ethyl)decan-1-aminium]	5 to 25	–	–	> 100	> 50	–	–	–	< 5	10 to 100	> 50	> 50	–	5 to 25	100 to 1000	> 50	IC50 [15]: 5000 to 50000 nM; S. aureus Selectivity Indices, Group ([6]; Quaternary ammoniums): B (Group B: 2 < SI <= 5); E. faecalis Selectivity Indices, Group ([10]; SI, IC50 (μM)/MIC80 (μM), HEK293 cytotoxicity, Quaternary ammoniums): B (Group B: 0.7 < SI <= 2)
